According to ChEMBL document CHEMBL4715853 (J Med Chem, 2020):
pEC50, pIC50: −log10 of the molar value.

Legend:
[1] = Cytotoxicity against human Huh-7 cells incubated for 1 hr by MTS assay; assay type: cell-based
[2] = Toxicity in human infected with SARS-CoV2 assessed as adverse events at 400 mg, po administered twice daily cotreated with 100 mg ritonavir and measured after 14 days; assay type: organism-based; conditions: in vivo, 336 h, time 14 day
[3] = Cytotoxicity against African green monkey Vero E6 cells incubated for 3 days by the MTS assay; assay type: cell-based, Vero C1008; conditions: chlorocebus sabaeus, time 3 day
SARS-CoV-2 [4] = experiment: Antiviral actvity against SARS-CoV2 infected in human assessed as improvement rate of chest at 400 mg, po administered twice daily cotreated with 100 mg ritonavir and measured after 14 days by computed tomography; assay type: functional, Severe acute respiratory syndrome coronavirus 2; conditions: time 14 day
in vitro [5] = conditions: rhesus monkey, LLC-MK2 cells
[6] = Selectivity ratio of CC50 for HAE cells to EC50 for SARS-CoV BJ-001 infected in African green monkey Vero E6 cells; assay type: toxicity, Vero C1008
SARS-CoV [7] = experiment: Antiviral activity against SARS-CoV BJ-001 infected in African green monkey Vero E6 cells assessed as reduction in virus induced cytopathic effect incubated for 72 hrs by MTS/phenazine methosulfate method; assay type: functional, organism-based; conditions: Severe acute respiratory syndrome-related coronavirus, BJ-001, Vero C1008, 72 h
in vitro [8] = conditions: hamster, BHK-21 cells
in vitro [9] = conditions: rhesus monkey, LLC-MK2 cells; remark: listed apart in the source
Human coronavirus OC43 [10] = experiment: Antiviral activity against wild type HCoV-OC43 infected in BHK-21 cells incubated for 72 hrs by RT-PCR method; assay type: functional, cell-based; conditions: Betacoronavirus 1, BHK-21, 72 h
in vitro [11] = conditions: hamster, BHK-21 cells; remark: listed apart in the source
Human coronavirus OC43 [12] = experiment: Antiviral activity against HCoV-OC43 infected in BALB/c mouse assessed as protection against virus-induced lethal infection at 15 mg/kg, ip administered for 14 days and measured up to 20 days; assay type: functional; conditions: time day <=20
[13] = Cytotoxicity against African green monkey Vero E6 cells incubated for 72 hrs by MTS assay; assay type: cell-based, Vero C1008; conditions: chlorocebus sabaeus
SARS-CoV [14] = experiment: Antiviral activity against SARS-CoV BJ-001 infected in African green monkey Vero E6 cells assessed as reduction in virus induced cytopathic effect by visual observation; assay type: functional, organism-based; conditions: Severe acute respiratory syndrome-related coronavirus, BJ-001, Vero C1008
[15] = Antiviral activity against HCoV-NL63 infected in Rhesus macaque LLC-MK2 cells incubated for 72 hrs by RT-PCR method; assay type: functional, cell-based; conditions: Human coronavirus NL63, LLC-MK2, 72 h
SARS-CoV-2 [16] = experiment: Antiviral activity against 2019-nCoV BetaCoV/Wuhan/WIV04/2019 infected in African green monkey VeroE6 cells assessed as reduction in viral yield preincubated with virus for 1 hr followed by cell infection and […] by qRT-PCR method; assay type: functional, organism-based; conditions: Severe acute respiratory syndrome coronavirus 2, BetaCoV/Wuhan/WIV04/2019, Vero C1008
[17] = Cytotoxicity against African green monkey Vero E6 cells by the CCK8 assay; assay type: cell-based, Vero C1008; conditions: chlorocebus sabaeus
[18] = Selectivity index, ratio of CC50 for African green monkey Vero E6 cells to EC50 for 2019-nCoV Beta CoV/Wuhan/WIV04/2019 infected in African green monkey Vero E6 cells; assay type: toxicity, Vero C1008; conditions: read-out: Ratio CC50/EC50
[19] = Selectivity index, ratio of CC50 for African green monkey Vero E6 cells to EC50 for SARS-CoV infected in African green monkey Vero E6 cells; assay type: toxicity, Vero C1008; conditions: read-out: Ratio CC50/EC50
SARS-CoV [20] = experiment: Antiviral activity against SARS-CoV infected in African green monkey Vero E6 cells assessed as reduction in viral replication by ELISA; assay type: functional, organism-based; conditions: Severe acute respiratory syndrome-related coronavirus, Vero C1008
[21] = Cytotoxicity against African green monkey Vero E6 cells incubated for 2 days by the MTS assay; assay type: cell-based, Vero C1008; conditions: chlorocebus sabaeus, time 2 day

Structure (SMILES) | selectivity ratio (in vitro [5]) | selectivity ratio (in vitro [8]) | CC50 at 72 h (in vitro [9]) [µM] | pEC50 (Human coronavirus OC43 [10]) | CC50 at 72 h (in vitro [11]) [µM] | pEC50 [15] | CC50 [17] [µM] | also measured
Cc1cccc(C)c1OCC(=O)N[C@@H](Cc1ccccc1)[C@@H](O)C[C@H](Cc1ccccc1)NC(=O)[C@H](C(C)C)N1CCCNC1=O [LOPINAVIR] | – | – | – | – | – | – | – | CC50 at 1 h [1]: > 37.6 µM; Activity [2]: 55.6%; CC50 at 72 h [3]: > 32 µM; Activity (SARS-CoV-2 [4]): 62.2%
O[C@H]1[C@H]2c3cc4c(cc3CN3CCC(=C[C@@H]1O)[C@H]23)OCO4 [LYCORINE] | 8.11 | 29.1 | 3.81 | 6.82 | 4.37 | 6.33 | – | selectivity ratio [6]: 954; pIC50 (SARS-CoV [7]): 7.80; Activity (Human coronavirus OC43 [12]): 83.3%; CC50 at 72 h [13]: 14.9 µM; pIC50 (SARS-CoV [14]): 7.80
CC[C@@]1([C@H]2O[C@H]([C@H]3O[C@@](O)(CO)[C@H](C)C[C@@H]3C)C[C@H]2C)CC[C@H]([C@@]2(C)CC[C@]3(C[C@H](O)[C@@H](C)[C@@H]([C@H](C)[C@H](OC)[C@@H](C)C(=O)O)O3)O2)O1 [MONENSIN SODIUM] | – | – | – | 5.42 | – | 5.81 | – | –
COc1c(C)c2c(c(O)c1C/C=C(\C)CCC(=O)OCCN1CCOCC1)C(=O)OC2 [MYCOPHENOLATE MOFETIL] | 13 | 2.2 | 3.01 | 5.80 | 3.43 | 6.64 | – | –
COc1c(C)c2c(c(O)c1C/C=C(\C)CCC(=O)O)C(=O)OC2 [MYCOPHENOLIC ACID] | 19 | 1.8 | 3.44 | 5.71 | 3.55 | 6.74 | – | –
N=C(N)c1ccc2cc(OC(=O)c3ccc(N=C(N)N)cc3)ccc2c1 [NAFAMOSTAT] | – | – | – | – | – | – | > 100 | pEC50 (SARS-CoV-2 [16]): 4.65; selectivity ratio [18]: > 4.4
CC(=O)Oc1ccccc1C(=O)Nc1ncc([N+](=O)[O-])s1 [NITAZOXANIDE] | – | – | – | – | – | – | > 35.5 | pEC50 (SARS-CoV-2 [16]): 5.67; selectivity ratio [18]: > 16.7
Nc1nc2c(ncn2CCC(CO)CO)c(=O)[nH]1 [PENCICLOVIR] | – | – | – | – | – | – | > 400 | pIC50 (SARS-CoV-2 [16]): 4.02; selectivity ratio [18]: > 4.2
Nc1ccc(/N=N/c2ccccc2)c(N)n1 [PHENAZOPYRIDINE] | > 9.9 | > 10 | > 20 | 5.72 | > 20 | 5.69 | – | –
Cc1cc(/C=C/c2ccc3cc(N(C)C)ccc3[n+]2C)c(C)n1-c1ccccc1 [PYRVINIUM PAMOATE] | – | – | – | 5.49 | – | 5.47 | – | –
COC(=O)[C@H]1[C@H]2C[C@@H]3c4[nH]c5cc(OC)ccc5c4CCN3C[C@H]2C[C@@H](OC(=O)c2cc(OC)c(OC)c(OC)c2)[C@@H]1OC [RESERPINE] | – | – | – | – | – | – | – | selectivity ratio [19]: 7.3; pIC50 (SARS-CoV [20]): 5.47; CC50 at 48 h [21]: 25 µM
NC(=O)c1ncn([C@@H]2O[C@H](CO)[C@@H](O)[C@H]2O)n1 [RIBAVIRIN] | – | – | – | – | – | – | > 400 | –
CC(C)[C@@H]1NC(=O)[C@H](C)OC(=O)[C@@H](C(C)C)NC(=O)[C@@H](C(C)C)OC(=O)[C@H](C(C)C)NC(=O)[C@H](C)OC(=O)[C@@H](C(C)C)NC(=O)[C@@H](C(C)C)OC(=O)[C@H](C(C)C)NC(=O)[C@H](C)OC(=O)[C@@H](C(C)C)NC(=O)[C@@H](C(C)C)OC1=O [VALINOMYCIN] | – | – | – | – | – | – | – | selectivity ratio [19]: 80; pIC50 (SARS-CoV [20]): 6.07; CC50 at 48 h [21]: 68 µM
